pIC50: −log10 of the molar value.
Columns and labels:
[1] = system: NCI-H1048 cells; assay: NCI-H1048 cell proliferation assay (CTG assay); type: cell-based; conditions: Homo sapiens, 120 hours, read-out: CTG cellular assay_H1048: IC50
Description: NCI-H1048 Cell Proliferation Assay (CTG Assay) The following is an example of an assay that can be used to determine the anti-proliferative activity of Wee1 PROTACs in a small cell lung cancer cell line, NCI-H1048 (ATCC Cat #CRL-5853). This cell line was cultured in RPMI-1640 medium supplemented with 10% FBS. About 1,200 NCI-H1048 cells in 50 μL of culture medium were seeded into a 384-well plate (Cat #3764, Corning), pre-spotted with compounds using the Echo 650 liquid handler (Beckman). The dose-response-curve (DRC) typically has 10-points with a highest concentration at 10 μM, and half-log diluted to as low as 0.316 nM, plus a DMSO control. Assay plates were incubated at 37° C. with 5% CO2 for 120 hours. After that, 20 μL of the CellTiter-Glo (CTG) Luminescent Cell Viability Assay Reagent (Cat #G7573, Promega) was added to each well and incubated at room temperature for 30 minutes. Luminescence was then measured with Pherastar microplate reader (BMG Labtech). All percentage of cell growth inhibition curves were processed using Collaborative Drug Discovery Vault.
Cell viability reads in compound-treated wells were normalized to that of DMSO control and expressed as Percent of Control (PoC, y). A four Parameter Logistic Model was used to determine the compound's EC50 and DC50, using the following equation: […]

[2] = molecular target: HiBiT tagged Wee1 (Homo sapiens, UniProt P30291); assay: Wee1 protein degradation assay (HiBiT assay); type: cell-based; conditions: engineered HT-1080 cells, 20 hours; for Dmax: maximum percentage of Wee1 degradation, read-out: HiBiT Wee1: Dmax
Sequence of HiBiT tagged Wee1 (P30291 whole entry): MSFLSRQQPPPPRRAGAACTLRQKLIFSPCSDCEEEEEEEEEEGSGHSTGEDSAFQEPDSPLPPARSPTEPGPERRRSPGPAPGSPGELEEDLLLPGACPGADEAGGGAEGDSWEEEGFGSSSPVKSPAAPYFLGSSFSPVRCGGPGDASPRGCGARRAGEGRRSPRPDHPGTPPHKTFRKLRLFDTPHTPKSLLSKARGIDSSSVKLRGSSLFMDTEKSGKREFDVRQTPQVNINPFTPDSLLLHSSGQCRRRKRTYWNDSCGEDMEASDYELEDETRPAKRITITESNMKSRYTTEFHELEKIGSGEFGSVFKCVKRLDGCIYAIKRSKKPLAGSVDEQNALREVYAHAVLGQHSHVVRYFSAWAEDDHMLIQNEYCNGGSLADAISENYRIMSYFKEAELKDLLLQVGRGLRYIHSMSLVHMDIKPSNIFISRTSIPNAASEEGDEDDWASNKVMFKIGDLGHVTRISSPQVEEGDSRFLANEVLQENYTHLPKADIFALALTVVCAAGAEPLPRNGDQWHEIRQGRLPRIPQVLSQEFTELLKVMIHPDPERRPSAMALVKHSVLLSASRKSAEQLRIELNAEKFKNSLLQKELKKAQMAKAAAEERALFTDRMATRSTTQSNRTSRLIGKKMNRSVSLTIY

Row | SMILES | pIC50 [1] | DC50 [2] [nM] | Dmax [2] [%]
1 | C=CCn1c(=O)c2cnc(Nc3ccc(N4CCN(CC5CCN(c6ncc(NC7CCC(=O)NC7=O)cc6F)CC5)CC4)cc3)nc2n1-c1ccc2c(n1)[C@@](O)(CC)CC2 (stereo partly drawn) [Compound 180] | ≥ 7.60 | < 100 | > 75
2 | C=CCn1c(=O)c2cnc(Nc3ccc(N4CCC(CN5CCC(c6ccc(NC7CCC(=O)NC7=O)cc6F)CC5)CC4)cc3)nc2n1-c1cccc(C(C)(C)O)n1 (stereo not drawn) [Compound 81] | ≥ 7.60 | < 100 | > 75
3 | C=CCn1c(=O)c2cnc(Nc3ccc(N4CCN(CC5CCN(c6ccc(NC7CCC(=O)NC7=O)cc6F)CC5)CC4)cc3)nc2n1-c1ccc2c(n1)[C@](C)(O)CC2 (single isomer, unassigned) [Compound 152-B] | ≥ 7.60 | < 100 | > 75
4 | C=CCn1c(=O)c2cnc(Nc3ccc(N4CCN(CC5CCN(c6ccc(NC7CCC(=O)NC7=O)cc6F)CC5)[C@@H](C)C4)cc3)nc2n1-c1ccc2c(n1)[C@@](O)(CC)CC2 (stereo partly drawn) [Compound 162] | ≥ 7.60 | < 100 | > 75
5 | C=CCn1c(=O)c2cnc(Nc3ccc(C4CCN(CC5CCN(Cc6ccc7c(c6)n(C)c(=O)n7C6CCC(=O)NC6=O)CC5)CC4)cc3)nc2n1-c1cccc(C(C)(C)O)n1 (stereo not drawn) [Compound 79] | ≥ 7.60 | < 100 | 50 to 75
6 | C=CCn1c(=O)c2cnc(Nc3ccc(N4CCC(N5CC6(CN(c7ccc(NC8CCC(=O)NC8=O)cc7F)C6)C5)CC4)cc3)nc2n1-c1cccc(C(C)(C)O)n1 (stereo not drawn) [Compound 123] | ≥ 7.60 | < 100 | > 75
7 | C=CCn1c(=O)c2cnc(Nc3ccc(N4CCN(CC5CCN(c6ncc(NC7CCC(=O)NC7=O)cc6Cl)CC5)CC4)cc3)nc2n1-c1ccc2c(n1)[C@@](O)(CC)CC2 (stereo partly drawn) [Compound 181] | ≥ 7.60 | < 100 | > 75
8 | C=CCn1c(=O)c2cnc(Nc3ccc(N4CCN(CC5CCN(c6ccc(NC7CCC(=O)NC7=O)cc6F)CC5)[C@H](C)C4)cc3)nc2n1-c1ccc2c(n1)[C@@](O)(CC)CC2 (stereo partly drawn) [Compound 163] | ≥ 7.60 | < 100 | > 75
9 | C=CCn1c(=O)c2cnc(Nc3ccc4c(c3)CN(CC3CN(c5ccc6c(c5)C(=O)N(C5CCC(=O)NC5=O)C6=O)C3)CC4)nc2n1-c1cccc(C(C)(C)O)n1 (stereo not drawn) [Compound 6] | < 7.00 | > 1000 | < 50
10 | C=CCn1c(=O)c2cnc(Nc3ccc(N4CCN(CC5CCN(c6cccc7c(C8CCC(=O)NC8=O)nn(C)c67)CC5)CC4)cc3)nc2n1-c1cccc(C(C)(C)O)n1 (stereo not drawn) [Compound 117] | ≥ 7.60 | < 100 | > 75
11 | C=CCn1c(=O)c2cnc(Nc3ccc(N4CCC(CN5CCN(c6ccc(NC7CCC(=O)NC7=O)cc6)CC5)CC4)cc3)nc2n1-c1cccc(C(C)(C)O)n1 (stereo not drawn) [Compound 92] | ≥ 7.60 | < 100 | > 75
12 | C=CCn1c(=O)c2cnc(Nc3ccc(N4CCN(CCCCc5ccc6c(c5)n(C)c(=O)n6C5CCC(=O)NC5=O)CC4)cc3)nc2n1-c1cccc(C(C)(C)O)n1 (stereo not drawn) [Compound 47] | ≥ 7.60 | 100 to 1000 | 50 to 75
13 | C=CCn1c(=O)c2cnc(Nc3ccc(N4CCN(CC5CCN(c6ccc7c(N8CCC(=O)NC8=O)nn(C)c7c6)CC5)CC4)cc3)nc2n1-c1ccc2c(n1)[C@@](O)(CC)CC2 [Compound 114] | ≥ 7.60 | < 100 | > 75
14 | C=CCn1c(=O)c2cnc(Nc3ccc(N4CCN(CC5CCN(c6ccc(NC7CCC(=O)NC7=O)cc6F)CC5)CC4)c(F)c3)nc2n1-c1cccc(C(C)(C)O)n1 (stereo not drawn) [Compound 125] | 7.00 to 7.60 | < 100 | > 75
15 | C=CCn1c(=O)c2cnc(Nc3ccc(N4CCN(CC5CCN(c6ccc7c(N8CCC(=O)NC8=O)nn(C)c7c6)CC5)CC4)cc3)nc2n1-c1cccc(C(C)(C)O)n1 [Compound 105] | ≥ 7.60 | < 100 | > 75
